Laboratory results: patent publication US20260234183A1, “SOLID STATE FORMS OF FOSGONIMETON AND SALTS THEREOF” (ASSIA CHEMICAL INDUSTRIES LTD., priority 2023, published 2026)
Entries after “also recorded” stand apart in the source; their conditions may differ. Counter-ions that a name gives are not always drawn. Square brackets hold non-standard residues; d marks the D form. Peptide text beside a SMILES is read from it. * marks the point of attachment. pY = N[C@@H](Cc1ccc(OP(=O)(O)O)cc1)C(=O)O; Hexanoyl = CCCCCC(=O)*; Ahx = NCCCCCC(=O)O

What was measured:
Type in all cases: physicochemical
[1] = Slurry experiments in solvent, XRPD analysis after filtration; conditions: for XRPD after slurry experiments: various solvents, ambient temperature, 1 or 7 days
Method: (§1) Sample is applied directly on a silicon plate holder. The X-ray powder diffraction pattern was measured with Philips X′Pert PRO X-ray powder diffractometer, equipped with Cu irradiation source=1.54184 Å (Ångström), X'Celerator (2.022° 2θ) detector. Scanning parameters: angle range: 3-40 deg., step size 0.0167, time per step 37 s, continuous scan.
(§2) Samples of Fosgonimeton mono sodium salt form N2 were subjected to slurry and to sauna conditions in various conditions. In the slurry experiments, 50 mg of the sample is placed in a 2 mL glass vial with 0.5 mL of solvent. Obtained suspension is stirred at ambient temperature for 1 or 7 days. XRPD analysis is performed on crystalline material after filtration. In the sauna experiments, 50 mg of crystalline material is placed in an Eppendorf tube. 0.5 mL of solvent is placed in a sealed 10 mL glass vial, along with Eppendorf tube. Crystalline material is checked by XRPD analysis after 1 or 7 days.
as §2, with “N5” for “N2”
as §2, with “potassium” for “sodium”, “K1” for “N2”
as §2, with “Fosgonimeton” for “Fosgonimeton mono sodium salt”, “form 1” for “form N2”, “to Sauna” for “to sauna”

[2] = Pressure stress test (Specac Hydraulic Press), XRPD analysis; conditions: 2 tons/2 minutes
Method: as §1
A sample of Fosgonimeton mono sodium salt form N2 was subjected to a pressure of 2 ton (Specac Hydraulic Press, set to 2 tons).
A sample of Fosgonimeton mono sodium salt form N5 was subjected to a pressure of 2 ton (Specac Hydraulic Press, set to 2 tons).
A sample of Fosgonimeton mono potassium salt form K1 was subjected to a pressure of 2 tons (Specac Hydraulic Press, set to 2 tons).
A sample of Fosgonimeton form 1 was subjected to a pressure of 2 tons (Specac Hydraulic Press, set to 2 tons).

[3] = Heating stress test, XRPD analysis; conditions: 100° C./60 minutes
Method: as §1
A sample of Fosgonimeton mono sodium salt form N2 was subjected to heating to 100° C. for 60 minutes.
A sample of Fosgonimeton mono sodium salt form N5 was subjected to heating to 100° C. for 60 minutes.
A sample of Fosgonimeton mono potassium salt form K1 was subjected to heating to 100° C. for 60 minutes.
A sample of Fosgonimeton form 1 was subjected to heating to 100° C. for 60 minutes.

[4] = Sauna experiments (solvent vapour in sealed vial), XRPD analysis; conditions: for XRPD after sauna experiments: various solvents, 1 or 7 days
Method: as §1, §2
as §2, with “N5” for “N2”
as §2, with “potassium” for “sodium”, “K1” for “N2”
as §2, with “Fosgonimeton” for “Fosgonimeton mono sodium salt”, “form 1” for “form N2”, “to Sauna” for “to sauna”

## CCCCCC(=O)N[C@@H](Cc1ccc(OP(=O)(O)O)cc1)C(=O)N[C@H](C(=O)NCCCCCC(N)=O)[C@@H](C)CC [Fosgonimeton form 1, [4-[(2S)-3-[[(2S,3S)-1-[(6-amino-6-oxohexyl)amino]-3-methyl-1-oxopentan-2-yl]amino]-2-(hexanoylamino)-3-oxopropyl]phenyl]dihydrogen phosphate] (Hexanoyl-[pY]-Ile-[Ahx]-NH2)
[1]; 2-Propanol/20-25° C./1 day
  XRPD after Slurry: No polymorphic change
[1]; Acetone/20-25° C./1 day
  XRPD after Slurry: No polymorphic change
[1]; Ethanol, 96%/20-25° C./1 day
  XRPD after Slurry: No polymorphic change
[1]; Ethyl acetate/20-25° C./1 day
  XRPD after Slurry: No polymorphic change
[2]
  XRPD after Pressure: no polymorphic conversion; also recorded: No polymorphic change
[3]
  XRPD after Heating: no polymorphic conversion; also recorded: No polymorphic change

## CCCCCC(=O)N[C@@H](Cc1ccc(OP(=O)(O)O)cc1)C(=O)N[C@H](C(=O)NCCCCCC(N)=O)[C@@H](C)CC [Fosgonimeton mono potassium salt form K1, Fosgonimeton mono potassium salt] (Hexanoyl-[pY]-Ile-[Ahx]-NH2)
[1]; 2-Propanol/20-25° C./7 days
  XRPD after Slurry: No polymorphic change
[1]; Acetone/20-25° C./7 days
  XRPD after Slurry: No polymorphic change
[1]; Ethanol, 96%/20-25° C./7 days
  XRPD after Slurry: No polymorphic change
[1]; Ethyl acetate/20-25° C./7 days
  XRPD after Slurry: No polymorphic change
[1]
  XRPD after slurry experiments: no change in the starting material
[2]; mono potassium salt
  XRPD after Pressure: no polymorphic conversion; also recorded: No polymorphic change
[3]; mono potassium salt
  XRPD after Heating: no polymorphic conversion; also recorded: No polymorphic change
[4]; 2-Propanol/20-25° C./7 days
  XRPD after Sauna: No polymorphic change
[4]; Acetone/20-25° C./7 days
  XRPD after Sauna: No polymorphic change
[4]; Ethanol, 96%/20-25° C./7 days
  XRPD after Sauna: No polymorphic change
[4]; Ethyl acetate/20-25° C./7 days
  XRPD after Sauna: No polymorphic change
[4]; Water/20-25° C./7 days
  XRPD after Sauna: No polymorphic change
[4]
  XRPD after sauna experiments: no change in the starting material

## CCCCCC(=O)N[C@@H](Cc1ccc(OP(=O)(O)O)cc1)C(=O)N[C@H](C(=O)NCCCCCC(N)=O)[C@@H](C)CC [Fosgonimeton mono sodium salt form N2, Fosgonimeton mono sodium salt] (Hexanoyl-[pY]-Ile-[Ahx]-NH2)
[1]; 2-Propanol/20-25° C./1 day
  XRPD after Slurry: No polymorphic change
[1]; Acetone/20-25° C./1 day
  XRPD after Slurry: No polymorphic change
[1]; Acetone/20-25° C./7 days
  XRPD after Slurry: No polymorphic change
[1]; Ethanol, 96%/20-25° C./1 day
  XRPD after Slurry: No polymorphic change
[1]; Ethanol, 96%/20-25° C./7 days
  XRPD after Slurry: No polymorphic change
[1]; Ethyl acetate/20-25° C./1 day
  XRPD after Slurry: No polymorphic change
[1]; Water/20-25° C./7 days
  XRPD after Slurry: No polymorphic change
[1]
  XRPD after slurry experiments: no change in the starting material
[2]; mono sodium salt
  XRPD after Pressure: no polymorphic conversion; also recorded: No polymorphic change
[3]; mono sodium salt
  XRPD after Heating: no polymorphic conversion; also recorded: No polymorphic change
[4]; 2-Propanol/20-25° C./7 days
  XRPD after Sauna: No polymorphic change
[4]; Acetone/20-25° C./7 days
  XRPD after Sauna: No polymorphic change
[4]; Ethanol, 96%/20-25° C./7 days
  XRPD after Sauna: No polymorphic change
[4]; Ethyl acetate/20-25° C./7 days
  XRPD after Sauna: No polymorphic change
[4]; Water/20-25° C./7 days
  XRPD after Sauna: No polymorphic change
[4]
  XRPD after sauna experiments: no change in the starting material

## CCCCCC(=O)N[C@@H](Cc1ccc(OP(=O)(O)O)cc1)C(=O)N[C@H](C(=O)NCCCCCC(N)=O)[C@@H](C)CC [Fosgonimeton mono sodium salt form N5, Fosgonimeton mono sodium salt] (Hexanoyl-[pY]-Ile-[Ahx]-NH2)
[1]; 2-Propanol/20-25° C./1 day
  XRPD after Slurry: No polymorphic change
[1]; Acetone/20-25° C./7 days
  XRPD after Slurry: No polymorphic change
[1]; Ethyl acetate/20-25° C./1 day
  XRPD after Slurry: No polymorphic change
[1]
  XRPD after slurry experiments: no change in the starting material
[2]; mono sodium salt
  XRPD after Pressure: no polymorphic conversion; also recorded: No polymorphic change
[3]; mono sodium salt
  XRPD after Heating: no polymorphic conversion
[4]; 2-Propanol/20-25° C./7 days
  XRPD after Sauna: No polymorphic change
[4]; Ethanol, 96%/20-25° C./7 days
  XRPD after Sauna: No polymorphic change
[4]; Ethyl acetate/20-25° C./7 days
  XRPD after Sauna: No polymorphic change
[4]
  XRPD after sauna experiments: no change in the starting material
